In brackets after ≈: the same amount, converted by molar mass.

The test system of one data set is C. albicans B4. The experiment in a line: microbe, parasite or virus in culture. It counts as cell-based, Candida albicans. The conditions noted are these: Candida albicans, B4, 48 h. The source says:
(§1) The C. albicans CAF2-1 (Genotype/Description: ura3Δ::imm434/URA3[89]) and DSY1050 (Genotype/Description: cdr1Δ::hisG/cdr1Δ::hisG/cdr2Δ::hisG/cdr2Δ::hisG/mdr1Δ::hisG-URA3-hisG/mdr1Δ::hisG[90]) strains used in this study were generous gift from D. Sanglard (Lausanne, Switzerland)[91],[92] whereas C. albicans B3 and Gu4 (Genotype/Description: clinical isolates fluconazole sensitive)[93]), B4 (Genotype/Description: Clinical isolate fluconazole resistant due to the overexpression of MDR1[93]) and Gu5 (Genotype/Description: Clinical isolate fluconazole resistant due to the overexpression of CDR1 and CDR2[93]) were a generous gift from prof. S. Milewski (Gdańsk, Poland)[94] and prof. J. Morschhäuser (Wurzburg, Germany)[93]. All strains were grown at 37 °C on Sabouraud medium (Biomerieux).
(§2) The antifungal activity was determined on the 96-well polystyrene microtiter plates (Sarstedt) according to Clinical and Laboratory Standards Institute M27-A3[95]. […] The compounds were dissolved in DMSO (10 mM) and then serially diluted in RPMI-1640 (ThermoFisher) medium to obtain the final concentration range. Inocula of all strains were prepared as suspensions with turbidity of 0.5 McFarland standard in sterile 0.85% saline and diluted in RPMI-1640. After inoculation, each well contained appr. 5 × 10^2 CFU/mL. The plates were cultivated for 48 h at 37 °C. Optical density was measured at A490nm using a microplate reader ASYS UVM 340 (Biogenet).

Data set [1] has as its system C. albicans CAF2-1. The experiment in a line: microbe, parasite or virus in culture. It is filed as cell-based, Candida albicans. The conditions noted are these: Candida albicans, CAF21, 48 h.
Excerpt: as §1, §2

A further data set relates to C. albicans DSY1050. The experiment in a line: microbe, parasite or virus in culture. The conditions noted are these: Candida albicans, DSY1050, 48 h. It is filed as cell-based, Candida albicans.
Excerpt: as §1, §2

The subject of a further data set is C. albicans Gu5. The experiment in a line: microbe, parasite or virus in culture. It is filed as cell-based, Candida albicans. The following applies: Candida albicans, GU5, 48 h.
Excerpt: as §1, §2

The next data set relates to C. albicans B3. The experiment in a line: microbe, parasite or virus in culture. It is filed as cell-based. The following applies: Candida albicans, B3, 48 h.
Excerpt: as §1, §2

The subject of the next data set is C. albicans Gu4. The experiment in a line: microbe, parasite or virus in culture. It counts as cell-based. The conditions noted are these: Candida albicans, GU4, 48 h.
Excerpt: as §1, §2

The test system of data set [2] is C. albicans CAF2-1. The experiment in a line: microbe, parasite or virus in culture. It is filed as cell-based, Candida albicans. The conditions noted are these: Candida albicans, CAF21, read-out: Viability of C. albicans CAF2-1. On the procedure: The synergistic effects of KeOP/KeP with Flc were determined using the M27-A3 method with modifications. Flc and KeOP/KeP stock solutions in DMSO (10 mM) were (alone and simultaneously) diluted in RPMI-1640 medium to obtain final concentrations of^1/8; ^1/4; ^1/2; 1 × MIC50 towards C. albicans CAF2-1 strain in microdilution sterile plates (Sarstedt). Statistical significance analysis was performed using Student’s t-test ([…], unpaired) comparing viability in the presence of corresponding Flc concentrations with/without KeOP/KeP.

The test system of data set [3] is hASCs (human adipose-derived stromal cells). The experiment in a line: Cytotoxicity IC50, TOX-8 resazurin assay, hASCs, 24 h. It is filed as cell-based. On the procedure: Human Adipose Tissue-derived Stem Cells (hASCs) were isolated from subcutaneous adipose tissue fragments harvested from non-diabetic female donors (age range 33–38, n = 2) during standard surgical procedure of total hip arthroplasty. Immediately after collection of tissue, the samples were placed in sterile tissue-transport medium (Hank’s Balanced Salt Solution (HBSS) supplemented with 1% Penicillin/Streptomycin/Amphotericin B solution (P/S/A). Mesenchymal stromal cell isolation was performed using enzymatic digestion of extracellular matrix with collagenase type I. Before digestion, tissue specimens were washed twice with HBSS and incubated in collagenase type I solution (1 mg/mL) at 37 °C for 40 min. The digest was subsequently centrifuged (1200 × g; 10 minutes; room temperature) and the cell pellet was resuspended in Dulbecco’s modified Eagle’s medium (DMEM) with Nutrient F-12 Ham, 10% of Fetal Bovine Serum (FBS), and 1% of P/S/A, transferred to a culture flask, and kept in culture under optimal conditions (37 °C in a humidified atmosphere of 5% CO2). The medium was refreshed every 2–3 days. At 80–90% confluence, the cells were passaged using trypsin solution (TrypLE Express, Life Technologies, California, USA). At passage 3, hASCs were collected and cellular phenotype was confirmed by the high expression of markers CD44, CD29, CD73, CD105 and low expression of CD45. Moreover, the trilineage differentiation capacity of ASCs was confirmed as previously described.
The IC50 values were determined using in vitro Toxicology TOX-8 Assay Kit (resazurin based) according to the manufacturer’s protocol. For this assay, cells were seeded in a 96-well plate at a density of 5 × 10^3 cells/well. The cells were pre-incubated in drug-free complete medium for 24 h before adding various concentrations of the compounds to be investigated. Stock solutions of the compounds were prepared in DMSO following serial dilutions in DMEM with Nutrient F-12 Ham complete medium. The cells exposure period was 24 h. After that time media were replaced with 10% v/v resazurin dye solution in fresh complete culture medium. Incubation was carried out for 2 h at 37 °C in the CO2 incubator. Reduction of the dye was measured spectrophotometrically at 600 nm and 690 nm reference wavelength (Epoch, Biotek). Absorbance measurements allowed the determination of viable treated cells relative to untreated controls using the inflection point of a dose-response graph. IC50 values were estimated as duplicates of triplicate readings in two independent experiments.
On the technique in general: The colour change of resazurin is a common sign of viable cells or microbes.

For data set [4] the following is noted: cited from earlier work.

A word on the viability: it is the share of living cells, or the viability signal relative to a control. Turning to `OC(Cn1cncn1)(Cn1cncn1)c1ccc(F)cc1F` [Flc, fluconazole, reference compound], the MIC50 is 50 µM (≈ 15.3 µg/mL) in the data set on C. albicans B4; 6.25 µM (≈ 1.91 µg/mL) in the data set with C. albicans CAF2-1 [1]; 0.78 µM (≈ 0.239 µg/mL) against C. albicans DSY1050; > 200 µM against C. albicans Gu5; 6.25 µM (≈ 1.91 µg/mL) against C. albicans B3; 6.25 µM (≈ 1.91 µg/mL) against C. albicans Gu4. In addition, the viability at 0.78 µM in the data set with C. albicans CAF2-1 [2] amounted to 86.9 ± 7.84%. For the same compound, the viability at 1.56 µM with C. albicans CAF2-1 [2] was found to be 71.3 ± 13.9%. Moreover, the viability at 3.13 µM in the data set on C. albicans CAF2-1 [2] worked out at 73.8 ± 4.35%. Further, the viability at 6.25 µM in the data set with C. albicans CAF2-1 [2] is 38 ± 8.94%. The “IC50 (cytotoxicity, hASCs viability)” value in data set [3] is “not cytotoxic in the tested concentration range”. Also, the “fold less active in vitro than Ke” value in [4] is on record as “approximately 16 fold”.

Values taken from PMC6838151 (Scientific Reports, 2019).
